According to US20230065953A1, “NOVEL HETEROARYL-TRIAZOLE COMPOUNDS AS PESTICIDES” (Bayer Aktiengesellschaft, priority 2019, published 2023):

Legend:
Assay type in all cases: in vivo
[1] = test system: adult unfed cat fleas (Ctenocephalides felis); test: Ctenocephalides felis oral test; conditions: 48 h
Summary of the method: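 About 20 adult unfed fleas fed through parafilm on cattle blood containing compound (DMSO stock diluted in blood), blood held at 37 °C and fleas at room temperature. Mortality (%) scored after 2 days.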

[2] = test system: Rhipicephalus microplus larvae (strain Parkhurst, resistant against synthetic pyrethroids); test: Rhipicephalus (Boophilus) microplus in-vitro contact test, larval cattle tick; conditions: 5 μg/cm^2 (=500 g/ha), after 48 hours, read-out: efficacy (larvae dead or moribund)
Summary of the method: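 Larvae (20–50 per tube) were exposed for 48 h at 27 °C and 85% relative humidity to dried acetone residues lining glass tubes, where 900 ppm corresponds to 5 μg/cm^2. Loss of negative geotaxis defined dead or moribund larvae, expressed as percent efficacy.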

[3] = test system: fall armyworm larvae (Spodoptera frugiperda); test: Spodoptera frugiperda spray test (maize leaf sections); conditions: 168 h
Summary of the method: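 Maize leaf sections sprayed with compound in acetone/dimethylformamide, diluted in water with 1000 ppm alkylarylpolyglycol ether emulsifier. Dried sections infested with fall armyworm larvae. Mortality (%) scored after 7 days; 100% = all caterpillars killed.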

[4] = test system: adult flies Musca domestica strain WHO-N; test: Musca domestica test (MUSCDO surface treatment & contact assay); conditions: 24 hours after contact, read-out: efficacy (mortality); for mortality at 4 mg/m2: surface concentration 4 mg/m^2, 30 min exposure; for mortality at 20 mg/m2: surface concentration 20 mg/m^2, 30 min exposure
Summary of the method: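 Compound in acetone at 2 mg/ml with 2000 ppm RME pipetted onto glazed tile; after acetone evaporates, adult WHO-N flies exposed on dried surface for 30 min. Percent mortality scored 24 h after contact.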

[5] = test system: adult brown dog ticks (Rhipicephalus sanguineus); test: Rhipicephalus sanguineus in-vitro contact test with adult brown dog ticks; conditions: 5 μg/cm^2 (=500 g/ha), after 48 hours, read-out: efficacy (ticks dead or moribund)
Summary of the method: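 Acetone solution rolled onto tube walls, 2 h at 30 rpm; 900 ppm → 5 μg/cm^2. Solvent evaporated, 5-10 adults/tube, perforated lid, lying, RT. 48 h: heat plate 45-50° C ≤5 min; immotile/uncoordinated = dead/moribund. 100% = all dead/moribund.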

[6] = test system: adult cat fleas (Ctenocephalides felis); test: Ctenocephalides felis in-vitro contact test, adult cat flea; conditions: 5 μg/cm^2 (=500 g/ha), after 48 hours
Summary of the method: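 Acetone solutions of compound were coated onto inner walls of glass tubes (900 ppm giving 5 μg/cm^2) and dried; 5-10 adult C. felis were then held 48 h at room temperature. Efficacy = % fleas dead or moribund, judged by inability to escape a 45-50° C heating plate within 5 min.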

[7] = test system: green peach aphid (Myzus persicae); test: Myzus persicae oral test; conditions: 120 h
Summary of the method: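 Compound was dissolved in acetone, diluted with water and mixed into IPL41 insect medium with sugar under a parafilm seal. A mixed aphid population fed through the parafilm, and mortality (%) was scored after 5 days.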

[8] = test system: larvae of the banded cucumber beetle (Diabrotica balteata); test: Diabrotica balteata spray test; conditions: 168 h, 100 g/ha (=32 μg/well), wheat seeds, after 7 days, read-out: efficacy (seedling growth)
Summary of the method: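 Wheat seeds germinated 1 day on agar were sprayed with compound in acetone/dimethylformamide with alkylarylpolyglycol ether emulsifier, diluted in emulsifier-containing water. Each unit then received 10-20 larvae, and % efficacy was scored after 7 days.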

SMILES	mortality at 100 ppm [1] [%]	pest or weed control at 5 µg/cm2 [2] [%]	mortality at 100 g/ha [3] [%]	mortality at 4 mg/m2 [4] [%]	mortality at 20 mg/m2 [4] [%]	pest or weed control at 5 µg/cm2, 500 g/ha [5] [%]	efficacy (fleas dead or moribund) [6] [%]	mortality at 4 ppm [7] [%]	pest or weed control at 32 µg/disc, 100 g/ha [8] [%]
C[C@H](NC(=O)c1cc(C(F)(F)F)cc(C(F)(F)F)c1)c1ncnn1-c1ncc(C#N)s1 [I-2]	100	100	100	90 to 100	80 to 100	100	80	100	100
Cc1nc([C@H](C)NC(=O)c2cc(C(F)(F)F)cc(C(F)(F)F)c2)n(-c2ncc(C(=O)N(C)CC3CC3)s2)n1 [I-4]	100	100	100	–	80 to 100	100	100	100	100
Cc1nc([C@H](C)NC(=O)c2cc(C(F)(F)F)cc(C(F)(F)F)c2)n(-c2ncc(C(=O)N(C)C)s2)n1 [I-5, 2-(5-{(1S)-1-[3,5-bis(trifluoromethyl)benzamido]ethyl}-3-methyl-1H-1,2,4-triazol-1-yl)-N,N-dimethyl-1,3-thiazole-5-carboxamide]	100	100	100	90 to 100	–	100	100	100	100
CCN(C)C(=O)c1cnc(-n2nc(C)nc2[C@H](C)NC(=O)c2cc(C(F)(F)F)cc(C(F)(F)F)c2)s1 [I-6]	100	100	100	90 to 100	80 to 100	100	100	100	100
Cc1nc([C@H](C)NC(=O)c2cc(C(F)(F)F)cc(C(F)(F)F)c2)n(-c2ncc(C(=O)N(C)CC#N)s2)n1 [I-9]	100	100	100	–	80 to 100	100	100	100	100
Cc1nc([C@H](C)NC(=O)c2cc(C(F)(F)F)cc(C(F)(F)F)c2)n(-c2ncc(C(N)=O)s2)n1 [I-21, 2-(5-{(1S)-1-[3,5-bis(trifluoromethyl)benzamido]ethyl}-3-methyl-1H-1,2,4-triazol-1-yl)-1,3-thiazole-5-carboxamide]	100	100	100	90 to 100	80 to 100	100	100	100	100
